In brackets after ≈: the same amount, converted by molar mass. Read-outs that look alike come from different tables or passages of the source.
Key:
Cryptococcus neoformans = conditions: cited from earlier work
[1] = tested on: Candida parapsilosis 22019 (QC); assay: MIC determination (NCCLS M27A/M38P broth dilution); type: cell-based
Candida krusei 6258 (QC) = assay: MIC determination (NCCLS M27A/M38P broth dilution); type: cell-based
[2] = tested on: Paecilomyces variotti 22319(QC); assay: MIC determination (NCCLS M27A/M38P broth dilution); type: cell-based
[3] = tested on: Cryptococcus neoformans M 106; assay: MIC determination (NCCLS M27A/M38P broth dilution); type: cell-based
Candida tropicalis 750 = assay: MIC determination (NCCLS M27A/M38P broth dilution); type: cell-based
Candida krusei 766.1 = assay: MIC determination (NCCLS M27A/M38P broth dilution); type: cell-based
Candida albicans Y-01-19 = assay: MIC determination (NCCLS M27A/M38P broth dilution); type: cell-based
Candida albicans 1122 = assay: MIC determination (NCCLS M27A/M38P broth dilution); type: cell-based
Candida glabrata 90030 = assay: MIC determination (NCCLS M27A/M38P broth dilution); type: cell-based
[4] = tested on: Aspergillus fumigatus 1008; assay: MIC determination (NCCLS M27A/M38P broth dilution); type: cell-based
[5] = tested on: Aspergillus fumigatus Si-I; assay: MIC determination (NCCLS M27A/M38P broth dilution); type: cell-based
ergosterol P450DM [6] = target: ergosterol P450DM (Candida albicans, UniProt P10613); conditions: cited from earlier work
Sequence of ergosterol P450DM (Candida albicans, UniProt P10613) (P10613 whole entry): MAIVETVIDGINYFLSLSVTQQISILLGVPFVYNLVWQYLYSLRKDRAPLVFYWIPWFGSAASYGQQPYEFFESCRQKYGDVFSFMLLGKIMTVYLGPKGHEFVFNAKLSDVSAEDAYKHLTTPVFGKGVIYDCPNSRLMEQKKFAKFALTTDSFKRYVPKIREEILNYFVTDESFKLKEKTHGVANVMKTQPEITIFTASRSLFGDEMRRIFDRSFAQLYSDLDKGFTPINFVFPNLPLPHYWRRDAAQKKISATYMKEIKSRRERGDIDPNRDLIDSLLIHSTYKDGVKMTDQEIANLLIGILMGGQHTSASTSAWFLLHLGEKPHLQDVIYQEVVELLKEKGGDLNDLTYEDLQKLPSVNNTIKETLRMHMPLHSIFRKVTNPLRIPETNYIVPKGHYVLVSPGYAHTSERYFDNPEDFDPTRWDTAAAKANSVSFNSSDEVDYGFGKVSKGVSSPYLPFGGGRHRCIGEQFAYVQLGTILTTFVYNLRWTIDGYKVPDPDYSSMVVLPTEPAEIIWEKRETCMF

ergosterol P450DM [7] = conditions: cited from earlier work
[8] = RPMI 1640, MOPS pH 7, read-out: MIC
[9] = Pichia kudriavzevii, Candida krusei 6258 (QC), RPMI 1640, MOPS pH 7, read-out: MIC
[10] = Paecilomyces variotti 22319(QC), RPMI 1640, MOPS pH 7, read-out: MIC
[11] = M106, RPMI 1640, MOPS pH 7, read-out: MIC
[12] = Pichia kudriavzevii, RPMI 1640, MOPS pH 7, read-out: MIC
[13] = Y0119, RPMI 1640, MOPS pH 7, read-out: MIC
[14] = Nakaseomyces glabratus, RPMI 1640, MOPS pH 7, read-out: MIC
[15] = Aspergillus fumigatus 1008, RPMI 1640, MOPS pH 7, read-out: MIC
[16] = Candida krusei 6258 (QC), RPMI 1640, MOPS pH 7
[17] = Paecilomyces variotti 22319(QC), RPMI 1640, MOPS pH 7
[18] = Aspergillus fumigatus 1008, RPMI 1640, MOPS pH 7
[19] = Aspergillus fumigatus Si-I, RPMI 1640, MOPS pH 7

CC[C@H](C)C[C@H](C)CCCCCCCCC(=O)N[C@H]1C[C@@H](O)[C@@H](NCCN)NC(=O)[C@@H]2[C@@H](O)CCN2C(=O)[C@H]([C@H](O)CCN)NC(=O)[C@H]([C@H](O)[C@@H](O)c2ccc(O)cc2)NC(=O)[C@@H]2C[C@@H](O)CN2C(=O)[C@H]([C@@H](C)O)NC1=O [caspofungin, Caspofungin]
activity against Cryptococcus neoformans (Cryptococcus neoformans): not active

C[C@@H](c1ncncc1F)[C@](O)(Cn1cncn1)c1ccc(F)cc1F [VORI, VORICONAZOLE]
MIC [1, 8]: 0.03 µg/mL (≈ 0.0859 µM) | MIC (Candida krusei 6258 (QC); [9]): 0.25 µg/mL (≈ 0.716 µM) | MIC [2, 10]: 0.06 µg/mL (≈ 0.172 µM) | MIC [3, 11]: 0.06 µg/mL (≈ 0.172 µM) | MIC (Candida tropicalis 750; [8]): 0.016 µg/mL (≈ 0.0458 µM) | MIC (Candida krusei 766.1; [12]): 1 µg/mL (≈ 2.86 µM) | MIC (Candida albicans Y-01-19; [13]): 0.5 µg/mL (≈ 1.43 µM) | MIC (Candida albicans 1122; [8]): 0.16 µg/mL (≈ 0.458 µM) | MIC (Candida glabrata 90030; [14]): 1 µg/mL (≈ 2.86 µM) | MIC [4, 15]: 0.25 µg/mL (≈ 0.716 µM) | MIC ([5]; Aspergillus fumigatus Si-I, RPMI 1640, MOPS pH 7, read-out: MIC): 0.25 µg/mL (≈ 0.716 µM) | greater inhibition of ergosterol P450DM compared to fluconazole (ergosterol P450DM [6]): 1.6 fold | greater inhibition of ergosterol P450DM compared to fluconazole (ergosterol P450DM [7]): 160 fold

CCC(C)n1ncn(-c2ccc(N3CCN(c4ccc(OCC5COC(Cn6cncn6)(c6ccc(Cl)cc6Cl)O5)cc4)CC3)cc2)c1=O (centres unmarked) [ITRA, ITRACONAZOLE]
MIC [1, 8]: 0.03 µg/mL (≈ 0.0425 µM) | MIC (Candida krusei 6258 (QC); Pichia kudriavzevii, pH 7): 0.125 µg/mL (≈ 0.177 µM) | MIC ([2]; Paecilomyces, pH 7): 0.125 µg/mL (≈ 0.177 µM) | MIC [3, 11]: 0.03 µg/mL (≈ 0.0425 µM) | MIC (Candida tropicalis 750; [8]): 0.004 µg/mL (≈ 0.00567 µM) | MIC (Candida krusei 766.1; [12]): 0.25 µg/mL (≈ 0.354 µM) | MIC (Candida albicans Y-01-19; [13]): 0.25 µg/mL (≈ 0.354 µM) | MIC (Candida albicans 1122; [8]): 0.016 µg/mL (≈ 0.0227 µM) | MIC (Candida glabrata 90030; [14]): 0.5 µg/mL (≈ 0.709 µM) | MIC [4, 15]: 0.25 µg/mL (≈ 0.354 µM) | MIC ([5]; Aspergillus fumigatus, pH 7): 0.125 µg/mL (≈ 0.177 µM)

OC(Cn1cncn1)(Cn1cncn1)c1ccc(F)cc1F [FLU, FLUCONAZOLE]
MIC [1, 8]: 2 µg/mL (≈ 6.53 µM) | MIC (Candida krusei 6258 (QC); [9]): 32 µg/mL (≈ 104 µM) | MIC [2, 10]: 2 µg/mL (≈ 6.53 µM) | MIC [3, 11]: 4 µg/mL (≈ 13.1 µM) | MIC (Candida tropicalis 750; [8]): 2 µg/mL (≈ 6.53 µM) | MIC (Candida krusei 766.1; [12]): 64 µg/mL (≈ 209 µM) | MIC (Candida albicans Y-01-19; [13]): 16 µg/mL (≈ 52.2 µM) | MIC (Candida albicans 1122; [8]): 0.5 µg/mL (≈ 1.63 µM) | MIC (Candida glabrata 90030; [14]): 16 µg/mL (≈ 52.2 µM) | MIC ([4]; Aspergillus fumigatus, 1008, pH 7): > 128 µg/mL | MIC ([5]; Aspergillus fumigatus, pH 7): > 128 µg/mL

C[C@@H](n1ccn(-c2ccc(-n3cnnn3)cc2)c1=S)[C@](O)(Cn1cncn1)c1ccc(F)cc1F [compound 4, 1-[(1R,2R)-2-(2,4-Difluorophenyl)-2-hydroxy-1-methyl-3-(1H-1,2,4-triazol-1-yl)propyl]-3-[4-(1H-1-tetrazolyl)phenyl]-2-(1H,3H)-thioimidazolone]
MIC ([1]; RPMI 1640, MOPS pH 7): <0.00025 µg/mL | MIC (Candida krusei 6258 (QC); [16]): 0.25 µg/mL (≈ 0.505 µM) | MIC [2, 17]: 0.016 µg/mL (≈ 0.0323 µM) | MIC ([3]; RPMI 1640, MOPS pH 7): 0.03 µg/mL (≈ 0.0605 µM) | MIC (Candida tropicalis 750; RPMI 1640, MOPS pH 7): 0.004 µg/mL (≈ 0.00807 µM) | MIC (Candida krusei 766.1; RPMI 1640, MOPS pH 7): 0.25 µg/mL (≈ 0.505 µM) | MIC (Candida albicans Y-01-19; RPMI 1640, MOPS pH 7): 0.25 µg/mL (≈ 0.505 µM) | MIC (Candida albicans 1122; RPMI 1640, MOPS pH 7): 0.06 µg/mL (≈ 0.121 µM) | MIC (Candida glabrata 90030; RPMI 1640, MOPS pH 7): 0.06 µg/mL (≈ 0.121 µM) | MIC [4, 18]: 0.25 µg/mL (≈ 0.505 µM) | MIC [5, 19]: 0.25 µg/mL (≈ 0.505 µM)

C[C@@H](n1ccn(-c2ccc(-n3ncnn3)cc2)c1=S)[C@](O)(Cn1cncn1)c1ccc(F)cc1F [compound 5, 1-[(1R,2R)-2-(2,4-Difluorophenyl)-2-hydroxy-1-methyl-3-(1H-1,2,4-triazol-1-yl)propyl]-3-[4-(2H-2-tetrazolyl)phenyl]-2-(1H,3H)-thioimidazolone]
MIC ([1]; RPMI 1640, MOPS pH 7): <0.00025 µg/mL | MIC (Candida krusei 6258 (QC); [16]): 0.06 µg/mL (≈ 0.121 µM) | MIC [2, 17]: Long trailing effect | MIC ([3]; RPMI 1640, MOPS pH 7): <0.00025 µg/mL | MIC (Candida tropicalis 750; RPMI 1640, MOPS pH 7): <0.00025 µg/mL | MIC (Candida krusei 766.1; RPMI 1640, MOPS pH 7): 0.5 µg/mL (≈ 1.01 µM) | MIC (Candida albicans Y-01-19; RPMI 1640, MOPS pH 7): 0.5 µg/mL (≈ 1.01 µM) | MIC (Candida albicans 1122; RPMI 1640, MOPS pH 7): <0.00025 µg/mL | MIC (Candida glabrata 90030; RPMI 1640, MOPS pH 7): 1 µg/mL (≈ 2.02 µM) | MIC [4, 18]: 0.125 µg/mL (≈ 0.252 µM) | MIC [5, 19]: 0.016 µg/mL (≈ 0.0323 µM)

C[C@@H]1[C@H](O)[C@@H](C)/C=C/C=C/C=C/C=C/C=C/C=C/C=C/[C@H](O[C@@H]2O[C@H](C)[C@@H](O)[C@H](N)[C@@H]2O)C[C@@H]2O[C@](O)(C[C@@H](O)C[C@@H](O)[C@H](O)CC[C@@H](O)C[C@@H](O)CC(=O)O[C@H]1C)C[C@H](O)[C@H]2C(=O)O [AMB, AMPHOTERICIN B]
MIC ([1]; RPMI 1640, MOPS pH 7): 0.125 µg/mL (≈ 0.135 µM) | MIC (Candida krusei 6258 (QC); [16]): 0.25 µg/mL (≈ 0.271 µM) | MIC [2, 17]: 0.25 µg/mL (≈ 0.271 µM) | MIC ([3]; RPMI 1640, MOPS pH 7): 0.06 µg/mL (≈ 0.0649 µM) | MIC (Candida tropicalis 750; RPMI 1640, MOPS pH 7): 0.125 µg/mL (≈ 0.135 µM) | MIC (Candida krusei 766.1; RPMI 1640, MOPS pH 7): 0.25 µg/mL (≈ 0.271 µM) | MIC (Candida albicans Y-01-19; RPMI 1640, MOPS pH 7): 0.25 µg/mL (≈ 0.271 µM) | MIC (Candida albicans 1122; RPMI 1640, MOPS pH 7): 0.25 µg/mL (≈ 0.271 µM) | MIC (Candida glabrata 90030; RPMI 1640, MOPS pH 7): 0.5 µg/mL (≈ 0.541 µM) | MIC [4, 18]: 0.25 µg/mL (≈ 0.271 µM) | MIC [5, 19]: 0.5 µg/mL (≈ 0.541 µM)

C[C@@H](n1ccn(-c2ccc(OCC(F)(F)C(F)F)cc2)c1=S)[C@](O)(Cn1cncn1)c1ccc(F)cc1F [compound 6, 1-[(1R,2R)-2-(2,4-Difluorophenyl)-2-hydroxy-1-methyl-3-(1H-1,2,4-triazol-1-yl)propyl]-3-[4-(2,2,3,3-tetrafluoropropoxy)phenyl]-2-(1H,3H)-thioimidazolone]
MIC ([1]; RPMI 1640, MOPS pH 7): <0.00025 µg/mL | MIC (Candida krusei 6258 (QC); [16]): 0.125 µg/mL (≈ 0.224 µM) | MIC [2, 17]: Long trailing effect | MIC ([3]; RPMI 1640, MOPS pH 7): <0.00025 µg/mL | MIC (Candida tropicalis 750; RPMI 1640, MOPS pH 7): <0.00025 µg/mL | MIC (Candida krusei 766.1; RPMI 1640, MOPS pH 7): 0.5 µg/mL (≈ 0.897 µM) | MIC (Candida albicans Y-01-19; RPMI 1640, MOPS pH 7): 0.5 µg/mL (≈ 0.897 µM) | MIC (Candida albicans 1122; RPMI 1640, MOPS pH 7): <0.00025 µg/mL | MIC (Candida glabrata 90030; RPMI 1640, MOPS pH 7): 2 µg/mL (≈ 3.59 µM) | MIC [4, 18]: 0.125 µg/mL (≈ 0.224 µM) | MIC [5, 19]: 0.016 µg/mL (≈ 0.0287 µM)

— patent US20050131041A1, “Azole derivatives as antifungal agents” (priority 2002, published 2005)
